Measured values from ChEMBL document CHEMBL2321780, “Fluorinated quinazolinones as potential radiotracers for imaging kinesin spindle protein expression” (2013).
Blank lines part the entries; values can stand above or below the compound they belong to. Calls of active or inactive are those of the source. No cut-off for these calls is given here.

Experiments:
SK-OV-3 [1] = test: Cell cycle arrest in human SKOV3 cells assessed as accumulation in S phase at 100 nM after 24 hrs by FACS analysis (reference value: 18.4%); format: functional
MCF7 [2] = test: Cell cycle arrest in human MCF7 cells assessed as accumulation in S phase at 100 nM after 24 hrs by FACS analysis (reference value: 19.6%); format: functional
PC-3 [3] = test: Cell cycle arrest in human PC3 cells assessed as accumulation in G2/M phase at 100 nM after 24 hrs by FACS analysis (reference value: 26.3%); format: functional
MCF7 [4] = test: Cell cycle arrest in human MCF7 cells assessed as accumulation in G2/M phase at 100 nM after 24 hrs by FACS analysis (reference value: 22.4%); format: functional
DU-145 [5] = test: Cell cycle arrest in human DU145 cells assessed as accumulation in G2/M phase at 100 nM after 24 hrs by FACS analysis (reference value: 31%); format: functional
PC-3 [6] = test: Cell cycle arrest in human PC3 cells assessed as accumulation in G0/G1 phase at 100 nM after 24 hrs by FACS analysis (reference value: 32.6%); format: functional
DU-145 [7] = test: Cell cycle arrest in human DU145 cells assessed as accumulation in S phase at 100 nM after 24 hrs by FACS analysis (reference value: 4.5%); format: functional
SK-OV-3 [8] = test: Cell cycle arrest in human SKOV3 cells assessed as accumulation in G2/M phase at 100 nM after 24 hrs by FACS analysis (reference value: 21.8%); format: functional
SK-OV-3 [9] = test: Cell cycle arrest in human SKOV3 cells assessed as accumulation in G0/G1 phase at 100 nM after 24 hrs by FACS analysis (reference value: 51.1%); format: functional
MCF7 [10] = test: Cell cycle arrest in human MCF7 cells assessed as accumulation in G0/G1 phase at 100 nM after 24 hrs by FACS analysis (reference value: 48.2%); format: functional
SK-OV-3 [11] = test: Cell cycle arrest in human SKOV3 cells assessed as phospho-histone3 level at 100 nM after 24 hrs by immunostaining analysis; format: functional
SK-OV-3 [12] = test: Nonspecific cytotoxicity against human SKOV3 cells after 44 hrs by MTT assay; format: functional; conditions: SK-OV-3, 44 h
PC-3 [13] = test: Cell cycle arrest in human PC3 cells assessed as accumulation in S phase at 100 nM after 24 hrs by FACS analysis (reference value: 14.2%); format: functional
DU-145 [14] = test: Cell cycle arrest in human DU145 cells assessed as accumulation in G0/G1 phase at 100 nM after 24 hrs by FACS analysis (reference value: 53.2%); format: functional
[15] = target: T1, Kinesin-like protein KIF11 (Homo sapiens) (UniProt P52732); test: Inhibition of KSP (unknown origin)-mediated ATP hydrolysis assessed as residual activity at 1 uM after 10 to 20 mins by spectrophotometric analysis
T1 sequence (whole entry): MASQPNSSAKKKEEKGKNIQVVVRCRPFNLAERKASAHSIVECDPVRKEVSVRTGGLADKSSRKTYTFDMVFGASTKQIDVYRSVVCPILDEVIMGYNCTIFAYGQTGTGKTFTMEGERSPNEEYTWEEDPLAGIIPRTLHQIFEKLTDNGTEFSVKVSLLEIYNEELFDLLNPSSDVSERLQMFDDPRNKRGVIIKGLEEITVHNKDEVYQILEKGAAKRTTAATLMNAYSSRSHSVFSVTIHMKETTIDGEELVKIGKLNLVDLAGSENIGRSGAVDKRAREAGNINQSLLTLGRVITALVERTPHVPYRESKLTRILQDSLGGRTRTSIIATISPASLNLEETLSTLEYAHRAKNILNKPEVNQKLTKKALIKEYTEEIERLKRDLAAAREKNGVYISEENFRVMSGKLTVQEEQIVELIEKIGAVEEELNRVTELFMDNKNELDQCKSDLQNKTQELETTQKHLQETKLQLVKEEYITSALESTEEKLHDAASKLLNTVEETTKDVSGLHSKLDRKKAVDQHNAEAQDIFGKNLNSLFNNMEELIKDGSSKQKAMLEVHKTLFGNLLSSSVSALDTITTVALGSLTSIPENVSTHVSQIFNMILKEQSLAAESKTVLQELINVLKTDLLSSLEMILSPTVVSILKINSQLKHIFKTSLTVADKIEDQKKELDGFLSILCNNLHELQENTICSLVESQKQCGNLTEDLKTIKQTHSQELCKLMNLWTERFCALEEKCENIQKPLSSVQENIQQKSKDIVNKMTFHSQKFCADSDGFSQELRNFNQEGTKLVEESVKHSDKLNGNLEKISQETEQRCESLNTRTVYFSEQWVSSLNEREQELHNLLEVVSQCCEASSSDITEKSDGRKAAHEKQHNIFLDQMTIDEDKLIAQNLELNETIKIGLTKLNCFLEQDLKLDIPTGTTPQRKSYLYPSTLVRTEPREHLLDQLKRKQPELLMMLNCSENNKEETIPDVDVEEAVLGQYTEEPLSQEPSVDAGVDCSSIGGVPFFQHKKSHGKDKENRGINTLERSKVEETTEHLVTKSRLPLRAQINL

DU-145 [16] = test: Cytotoxicity against human DU145 cells assessed as inhibition of KSP-mediated cell cycle progression after 44 hrs by MTT assay; format: functional; conditions: DU-145, 44 h
MCF7 [17] = test: Cytotoxicity against human MCF7 cells assessed as inhibition of KSP-mediated cell cycle progression after 44 hrs by MTT assay; format: functional; conditions: MCF7, 44 h
SK-OV-3 [18] = test: Cytotoxicity against human SKOV3 cells assessed as inhibition of KSP-mediated cell cycle progression after 44 hrs by MTT assay; format: functional; conditions: SK-OV-3, 44 h
PC-3 [19] = test: Cytotoxicity against human PC3 cells assessed as inhibition of KSP-mediated cell cycle progression after 44 hrs by MTT assay; format: functional; conditions: PC-3, 44 h
SK-OV-3 [20] = test: Cell cycle arrest in human SKOV3 cells assessed as monoaster phenotype at 100 nM after 22 hrs by confocal microscopic analysis; format: functional, cell-based
SK-OV-3 [21] = test: Nonspecific cytotoxicity against human SKOV3 cells after 44 hrs by BrdU incorporation assay; format: functional; conditions: SK-OV-3, 44 h
SK-OV-3 [22] = test: Cytotoxicity against human SKOV3 cells assessed as inhibition of KSP-mediated cell cycle progression after 44 hrs by BrdU incorporation assay; format: functional; conditions: SK-OV-3, 44 h
SK-OV-3 [23] = test: Cell cycle arrest in human SKOV3 cells assessed as monoaster phenotype at 100 nM after 24 hrs by confocal microscopic analysis; format: functional, cell-based
SK-OV-3 [24] = test: Cell cycle arrest in human SKOV3 cells assessed as absence of normal mitotic stages at 100 nM after 24 hrs by confocal microscopic analysis; format: functional, cell-based

SMILES: CC(C)[C@@H](c1nc2cc(Cl)ccc2c(=O)n1Cc1ccccc1)N(CCCN)C(=O)c1cccc(F)c1
- GI50 (SK-OV-3 [12]): 1100 nM
- Activity [15]: 95.5%

SMILES: CC(C)[C@H](c1nc2cc(Cl)ccc2c(=O)n1Cc1ccccc1)N(CCCN)C(=O)c1ccc(F)cc1
- Activity (SK-OV-3 [1]): 13.8%
- Activity (SK-OV-3 [20]): Active
- Activity (MCF7 [2]): 12%
- Activity (PC-3 [3]): 63.6%
- Activity (MCF7 [4]): 53.2%
- GI50 (SK-OV-3 [21]): 61000 nM
- Activity (PC-3 [6]): 12%
- GI50 (DU-145 [16]): 0.19 nM
- Activity (SK-OV-3 [8]): 58.5%
- GI50 (MCF7 [17]): 1 nM
- GI50 (SK-OV-3 [22]): 0.01 nM
- GI50 (PC-3 [19]): 0.5 nM
- Activity (SK-OV-3 [9]): 3.5%
- Activity (MCF7 [10]): 25.1%
- Activity (SK-OV-3 [11]): 58.8%
- Activity (SK-OV-3 [23]): Active
- GI50 (SK-OV-3 [12]): 15400 nM
- Activity (PC-3 [13]): 11.1%
- Activity [15]: 2.7%
- Activity (SK-OV-3 [24]): Active

SMILES: Cc1ccc(C(=O)N(CCCN)[C@@H](c2nc3cc(Cl)ccc3c(=O)n2Cc2ccccc2)C(C)C)cc1 [ISPINESIB]
- Activity (SK-OV-3 [1]): 13.6%
- Activity (MCF7 [2]): 10.6%
- Activity (PC-3 [3]): 60.9%
- Activity (MCF7 [4]): 57.2%
- Activity (DU-145 [5]): 49.8%
- Activity (PC-3 [6]): 13.8%
- Activity (DU-145 [7]): 10.8%
- Activity (SK-OV-3 [8]): 51.3%
- Activity (SK-OV-3 [9]): 3.8%
- Activity (MCF7 [10]): 22.1%
- Activity (PC-3 [13]): 10.1%
- Activity (DU-145 [14]): 24.8%
- Activity [15]: 8.8%

Continued, in another order:

- Activity [15]: 96.1%
SMILES: CC(C)[C@@H](c1nc2cc(Cl)ccc2c(=O)n1Cc1ccccc1)N(CCCN)C(=O)c1ccc(F)cc1
- Activity (SK-OV-3 [1]): 16.2%
- Activity (MCF7 [2]): 15.2%
- Activity (PC-3 [3]): 32.9%
- Activity (MCF7 [4]): 22.8%
- Activity (DU-145 [5]): 27.7%
- Activity (PC-3 [6]): 31%
- Activity (DU-145 [7]): 9.5%
- Activity (SK-OV-3 [8]): 22.5%
- Activity (SK-OV-3 [9]): 51.9%
- Activity (MCF7 [10]): 51.3%
- Activity (SK-OV-3 [11]): 2.6%
- GI50 (SK-OV-3 [12]): 500 nM
- Activity (PC-3 [13]): 24.2%
- Activity (DU-145 [14]): 52.9%

- Activity [15]: 95.9%
SMILES: CC(C)[C@@H](c1nc2cc(Cl)ccc2c(=O)n1Cc1ccccc1)N(CCCN)C(=O)c1ccccc1F
- GI50 (SK-OV-3 [12]): 850 nM

- Activity [15]: 10.1%
SMILES: CC(C)C(c1nc2cc(Cl)ccc2c(=O)n1Cc1ccccc1)N(CCCN)C(=O)c1cccc(F)c1 (racemic)
- GI50 (DU-145 [16]): 4 nM
- GI50 (MCF7 [17]): 5.1 nM
- GI50 (SK-OV-3 [18]): 15.6 nM
- GI50 (PC-3 [19]): 17 nM
- GI50 (SK-OV-3 [12]): 5700 nM

- Activity [15]: 7.5%
SMILES: CC(C)[C@H](c1nc2cc(Cl)ccc2c(=O)n1Cc1ccccc1)N(CCCN)C(=O)c1ccccc1F
- Activity (SK-OV-3 [20]): Active
- GI50 (DU-145 [16]): 10.7 nM
- GI50 (MCF7 [17]): 4.2 nM
- GI50 (SK-OV-3 [18]): 34.8 nM
- GI50 (PC-3 [19]): 7.8 nM
- GI50 (SK-OV-3 [12]): 5350 nM

- Activity [15]: 99.4%
SMILES: Cc1ccc(C(=O)N(CCCN)[C@H](c2nc3cc(Cl)ccc3c(=O)n2Cc2ccccc2)C(C)C)cc1
- Activity (SK-OV-3 [1]): 16.6%
- Activity (MCF7 [2]): 17.6%
- Activity (PC-3 [3]): 25%
- Activity (MCF7 [4]): 21.2%
- Activity (DU-145 [5]): 24.5%
- Activity (PC-3 [6]): 34.4%
- Activity (DU-145 [7]): 10.3%
- Activity (SK-OV-3 [8]): 14.5%
- Activity (SK-OV-3 [9]): 49.8%
- Activity (MCF7 [10]): 49.7%
- Activity (PC-3 [13]): 30%
- Activity (DU-145 [14]): 53.7%
